Earlier results on 1 substance are cited in patent EP0879035B1, “BISMUTH-CONTAINING COMPOSITIONS IN TOPICAL DOSAGE FORMS” (Josman Laboratories, Inc., priority 1995, dated 1997).

Like-named read-outs stand apart in the source and are kept apart here.

One data set deals with H. Pylori. The note with it: against H. Pylori.
The conditions of data set [1]: dogs treated for six months; 160, 320, and 640 mg/kg body weight.
The conditions of data set [2]: in vivo.
For data set [3] the following is noted: rats treated for three months; 160, 320, and 640 mg/kg body weight.

Take “1,2,3-PROPANETRICARBONIC ACID, 2-HYDROXY, BISMUTH(3T)POTASSIUM [CBS]”: the “minimum inhibitory concentration (MIC), range” value with H. Pylori is 4 to 32 mg/L. Moreover, the “toxicity on chronic daily administration” value in data set [1] and in data set [3] was “No toxicity” each time. In addition, the “steady-state blood levels unlikely to cause any neurotoxicity” value in data set [2] is recorded as 50-100. Further, the “systemic bioavailability of bismuth” value in data set [2] (po) was 0.16-0.28 % of the administered dose.
